Experimental data taken from the supplement of paper PMC10307832.

What was measured:
Assay in all cases: relative viability (nuclei count vs DMSO), 5 days (fraction); higher = more cells survive
ALW-II-49-7 + Tozasertib = compound: Cc1ccc(C(=O)Nc2cccc(C(F)(F)F)c2)cc1Nc1cncc(C(N)=O)c1 [ALW-II-49-7] + Cc1cc(Nc2cc(N3CCN(C)CC3)nc(Sc3ccc(NC(=O)C4CC4)cc3)n2)n[nH]1 [Tozasertib] (partner 0.1 µM)
Outline: (§1)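 Lung cancer cell lines in 1536-well plates were dosed by pin tool the day after seeding, either with one drug alone or with a fixed anchor-drug dose plus five library-drug doses (not always all listed) in √10 steps. After 5 days, cells were fixed and their nuclei stained in one step (final 0.05% Triton X-100, 1% formaldehyde, 1 ug/ml Hoechst), then counted on 4× images. Relative viability is the nuclei count in treated wells divided by that in vehicle wells. Values are medians of duplicate plates.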

Dasatinib + Foretinib = compound: Cc1nc(Nc2ncc(C(=O)Nc3c(C)cccc3Cl)s2)cc(N2CCN(CCO)CC2)n1 [Dasatinib] + COc1cc2c(Oc3ccc(NC(=O)C4(C(=O)Nc5ccc(F)cc5)CC4)cc3F)ccnc2cc1OCCCN1CCOCC1 [Foretinib] (partner 0.25 µM)
Outline: as §1

Dasatinib + Vorinostat = compound: Cc1nc(Nc2ncc(C(=O)Nc3c(C)cccc3Cl)s2)cc(N2CCN(CCO)CC2)n1 [Dasatinib] + O=C(CCCCCCC(=O)Nc1ccccc1)NO [Vorinostat] (partner 1 µM)
Outline: as §1

Dasatinib + Lapatinib = compound: Cc1nc(Nc2ncc(C(=O)Nc3c(C)cccc3Cl)s2)cc(N2CCN(CCO)CC2)n1 [Dasatinib] + CS(=O)(=O)CCNCc1ccc(-c2ccc3ncnc(Nc4ccc(OCc5cccc(F)c5)c(Cl)c4)c3c2)o1 [Lapatinib] (partner 2 µM)
Outline: as §1

Cell Line	relative viability (ALW-II-49-7 + Tozasertib; first compound 0.08 µM)	relative viability (ALW-II-49-7 + Tozasertib; first compound 0.253 µM)	relative viability (ALW-II-49-7 + Tozasertib; first compound 0.8 µM)	relative viability (ALW-II-49-7 + Tozasertib; first compound 2.53 µM)	relative viability (ALW-II-49-7 + Tozasertib; first compound 8 µM)	relative viability (Dasatinib + Foretinib; first compound 0.005 µM)	relative viability (Dasatinib + Foretinib; first compound 0.01581 µM)	relative viability (Dasatinib + Foretinib; first compound 0.05 µM)	relative viability (Dasatinib + Foretinib; first compound 0.1581 µM)	relative viability (Dasatinib + Foretinib; first compound 0.5 µM)	relative viability (Dasatinib + Vorinostat; first compound 0.005 µM)	relative viability (Dasatinib + Vorinostat; first compound 0.01581 µM)	relative viability (Dasatinib + Vorinostat; first compound 0.05 µM)	relative viability (Dasatinib + Vorinostat; first compound 0.1581 µM)	relative viability (Dasatinib + Vorinostat; first compound 0.5 µM)	relative viability (Dasatinib + Lapatinib; first compound 0.005 µM)	relative viability (Dasatinib + Lapatinib; first compound 0.01581 µM)	relative viability (Dasatinib + Lapatinib; first compound 0.05 µM)	relative viability (Dasatinib + Lapatinib; first compound 0.1581 µM)	relative viability (Dasatinib + Lapatinib; first compound 0.5 µM)
201T	0.886	0.948	0.941	0.902	0.92	0.945	0.883	0.816	0.531	0.346	0.912	0.723	0.792	0.649	0.346	0.931	0.81	0.924	0.875	0.486
A549	–	–	–	–	–	0.876	0.817	0.59	0.3	0.119	–	–	–	–	–	0.955	0.824	0.83	0.673	0.194
A-427	0.18	0.204	0.21	0.177	0.204	0.971	1.04	0.974	0.694	0.599	0.831	0.766	0.793	0.517	0.495	0.89	1.06	0.893	0.646	0.551
ABC-1	0.172	0.179	0.162	0.197	0.191	1.08	0.906	0.948	0.692	0.487	1.18	1.17	0.731	0.787	0.706	0.993	0.896	1.38	0.872	0.693
BEN	0.331	0.524	0.512	0.515	0.632	0.682	0.513	0.35	0.366	0.291	0.577	0.445	0.417	0.371	0.368	0.617	0.362	0.432	0.312	0.336
CAL-12T	0.289	0.406	0.389	0.274	0.308	1.18	1.04	1.23	0.66	0.532	1.02	0.846	0.708	0.477	0.225	0.624	0.551	0.597	0.252	0.172
COR-L23	0.206	0.193	0.17	0.15	0.15	0.915	0.904	0.829	0.535	0.549	0.419	0.342	0.323	0.237	0.24	0.983	0.853	0.955	0.74	0.737
COR-L 105	0.38	0.263	0.346	0.336	0.315	0.786	0.955	0.64	0.377	0.264	0.891	0.58	0.683	0.445	0.363	0.352	0.301	0.28	0.256	0.318
Calu-6	–	–	–	–	–	0.738	0.702	0.633	0.513	0.469	–	–	–	–	–	0.924	0.776	0.848	0.642	0.59
ChaGo-K-1	0.248	0.238	0.22	0.212	0.2	0.922	0.881	0.874	0.725	0.667	0.735	0.737	0.704	0.565	0.47	–	–	–	–	–
EBC-1	–	–	–	–	–	0.106	–	0.0991	0.121	0.0976	–	–	–	–	–	0.248	0.217	0.236	0.233	0.252
EKVX	0.323	0.413	0.344	0.322	0.381	0.757	0.84	0.753	0.455	0.135	0.725	0.642	0.6	0.355	0.267	0.205	0.165	0.149	0.123	0.0913
EMC-BAC-2	0.267	0.273	0.276	0.203	0.199	0.862	0.733	0.573	0.297	0.242	0.392	0.308	0.273	0.22	0.172	0.936	0.708	0.613	0.667	0.334
EPLC-272H	0.127	–	0.257	0.298	0.27	0.769	0.631	0.634	0.214	0.127	0.539	0.401	0.335	0.276	0.162	0.866	0.913	0.938	0.79	0.346
H3255	0.724	0.613	0.675	0.625	0.42	1.02	0.822	0.726	0.944	0.352	0.826	0.789	0.777	0.828	0.37	0.303	0.212	0.208	0.155	0.204
HARA	0.0918	0.121	0.114	0.0912	0.0839	0.826	0.504	0.541	0.207	0.136	0.508	0.474	0.438	0.272	0.274	0.851	0.701	0.505	0.201	0.137
HCC-15	0.325	0.367	0.272	0.328	0.333	1.09	0.919	0.876	0.719	0.57	0.85	0.719	0.842	0.655	0.669	0.887	0.942	0.846	0.764	0.658
HCC-44	–	0.908	0.874	0.109	0.664	–	–	–	–	–	1.26	1.03	1.32	1.16	0.867	1.03	0.942	1.07	0.844	0.555
